{"source": "patent US20260265299A1", "about": "“SYNTHESIS OF BICYCLE TOXIN CONJUGATES, AND INTERMEDIATES THEREOF” (priority 2023, published 2026)", "format_in_all_cases": "physicochemical", "key": {"[1]": {"assay": "Solubility of gvcMMAE in different solvents (assay in mother liquor)", "details": "for Assay in ML (w/w %): 20-30° C., 0.5 h, free acid state", "excerpt": "3.3.6. Study the Solubility of gvcMMAE in Different Solvents (Table 10)\nSolubility of gvcMMAE (free acid state) in different solvents (THF, DCM, MTBE, n-Heptane, iPrOAc, 1,4-dioxane) were investigated."}, "[2]": {"assay": "DVS test (hygroscopicity)", "method": "(Uptake 3.6% water on sorption curve between 40% RH and 80% RH, at 25° C.)."}, "[3]": {"assay": "Moisture absorption experiment at 60% RH", "details": "3 days", "method": "100 mg of gvcMMAE was stood at 60% RH condition to do a moisture absorption experiment. The solid state had no change (The weight changed to 103 mg) after 3 days."}, "[4]": {"assay": "Stress test of gvcMMAE at different drying temperature (HPLC)", "details": "for HPLC/area % gvcMMAE: dry", "method": "3.3.13. Stress Test of gvcMMAE at Different Drying Temperature (Table 22 and 23)\nStress test of gvcMMAE at different drying temperatures was done. According to the result listed below, gvcMMAE was stable at 40° C. for 3 days."}}, "note": "Starred links: 1 amine or outer side, 2 acyl side, 3 side chain; linkers in the order of their positions; H or OH if unused. Non-standard residues stand in square brackets, D forms with d. Residues, ends and D or L forms follow the SMILES beside them. ξ: configuration not given here. *: point of attachment. Dolaproine = CO[C@@H]([C@@H]1CCCN1)[C@@H](C)C(=O)O; ξDil = CC[C@H](C)C([C@@H](CC(=O)[*:2])OC)N(C)[*:1]; PABC = O=C(OCc1ccc(N[*:1])cc1)[*:2]; Glutaryl = O=C(CCCC(=O)[*:2])[*:1]; X1 = C[C@@H](N*)[C@@H](O)c1ccccc1; Cit = NC(=O)NCCC[C@H](N)C(=O)O; NMeV = CN[C@H](C(=O)O)C(C)C", "data": [{"compound": "CC[C@H](C)C([C@@H](CC(=O)N1CCC[C@H]1[C@H](OC)[C@@H](C)C(=O)N[C@H](C)[C@@H](O)c1ccccc1)OC)N(C)C(=O)[C@@H](NC(=O)[C@H](C(C)C)N(C)C(=O)OCc1ccc(NC(=O)[C@H](CCCNC(N)=O)NC(=O)[C@@H](NC(=O)CCCC(=O)O)C(C)C)cc1)C(C)C", "note": "(stereo partly drawn) [gvcMMAE, Glutaryl-Val-Cit-PAB-MMAE] (Glutaryl-V[Cit][PABC][NMeV]V[ξDil][Dolaproine]-X1)", "values": [{"measurement": "Assay in ML (w/w %)", "setting": "[1]; 1,4-dioxane 20 v", "result": 0.22, "unit": "w/w %"}, {"measurement": "Assay in ML (w/w %)", "setting": "[1]; DCM 20 v", "result": 0.00, "unit": "w/w %"}, {"measurement": "Assay in ML (w/w %)", "setting": "[1]; MTBE 20 v", "result": 0.00, "unit": "w/w %"}, {"measurement": "Assay in ML (w/w %)", "setting": "[1]; N-heptane 20 v", "result": 0.00, "unit": "w/w %"}, {"measurement": "Assay in ML (w/w %)", "setting": "[1]; THF 20 v", "result": 0.47, "unit": "w/w %"}, {"measurement": "Solubility in solvents (in words)", "setting": "[1]; THF, DCM, MTBE, n-Heptane, iPrOAc, 1,4-dioxane", "result": "insoluble in most solvents"}, {"measurement": "Assay in ML (w/w %)", "setting": "[1]; iPrOAc 20 v", "result": 0.00, "unit": "w/w %"}, {"measurement": "Hygroscopicity (DVS)", "setting": "[2]; 80% RH at 25° C.", "result": "hygroscopic"}, {"measurement": "Water uptake on sorption curve", "setting": "[2]; between 40% RH and 80% RH, at 25° C.", "result": 3.6, "unit": "%"}, {"measurement": "Solid state after moisture absorption", "setting": "[3]; 100 mg", "result": "no change"}, {"measurement": "Weight after moisture absorption", "setting": "[3]; starting from 100 mg", "result": 103, "unit": "mg"}, {"measurement": "HPLC/area % gvcMMAE", "setting": "[4]; 20° C., 3 days", "result": 98.62, "unit": "area %"}, {"measurement": "HPLC/area % gvcMMAE", "setting": "[4]; 30° C., 3 days", "result": 98.65, "unit": "area %"}, {"measurement": "Stability at drying temperature (in words)", "setting": "[4]; 40° C. for 3 days", "result": "stable"}, {"measurement": "HPLC/area % gvcMMAE", "setting": "[4]; 40° C., 3 days", "result": 98.61, "unit": "area %"}, {"measurement": "HPLC/area % gvcMMAE", "setting": "[4]; 50° C., 3 days", "result": 98.52, "unit": "area %"}, {"measurement": "HPLC/area % gvcMMAE", "setting": "[4]; before stress test", "result": 98.54, "unit": "area %"}]}]}
